Measurements published in patent US11926628B2 (Gilead Sciences, Inc., priority 2021, dated 2024).

Tests used:
human DGKα = human DGKα (Homo sapiens (Human), UniProt P23743); experiment: DGKα Biochemical Activity Assay (ADP-Glo); conditions: recombinant DGKα 1 nM, 100 μM ATP, 18:1 DAG/POPS/octylglucoside micelles, 1 hour at 25° C.; geometric mean; read-out: HTBS DGKa 1X ATP KM IC50
Excerpt: Alternatively, the enzymatic activity of human DGKα was monitored in a biochemical assay in the presence or absence of compounds and using micelles containing 18:1 Diacylglycerol (DAG), 16:0-18:1 PS (POPS) and Octylglucoside as substrate. DGKα activity led to conversion of DAG and ATP to Phosphatidic Acid (PA) and ADP. Levels of ADP were monitored by bioluminescence using the ADP-Glo Kinase Assay (Promega) and were indicative of DGKα activity.
Ten nanoliters of test compound dissolved in DMSO at various concentrations were dispensed into a 384-well low volume nonbinding service white plates (Corning #3824) using a Labcyte Echo instrument. Recombinant DGKα (Carna Biosciences) in assay buffer (5 μL in 50 mM MOPS [3-(N-morpholino) propanesulfonic acid], pH 7.2; 0.0025% Triton X-100; 1 mM dithiothreitol; 5 mM MgCl2, 200 μM ATP) was added to the compound-containing plate and was incubated for 15 minutes at 25° C. A substrate solution (5 μL in 1.7 mM 1,2-dioleoyl-sn-glycerol [18:1 DAG], 13.5 mM 1-palmitoyl-2-oleoyl-sn-glycero-3-phospho-L-serine [16:0-18:1 PS](POPS), 2 μM CaCl2, 100 mM Octylglucoside (OG), 1 mM DTT) (obtained from Carna Biosciences) diluted in DGK ALPHA assay buffer was then added to start the reaction. Final concentrations were 1 nM DGKα, 100 μM ATP, 1 μM calcium chloride, 0.85 mM 1,2-dioleoyl-sn-glycerol (18:1 DAG), 6.75 mM 1-palmitoyl-2-oleoyl-sn-glycero-3-phospho-L-serine (16:0-18:1 PS) (POPS), 1 μM CaCl2), 50 mM Octylglucoside (OG) and 5 mM MgCl2. The reaction mixture was incubated at 25° C. for 1 hour. ADP-Glo Reagent (10 μL, 10 mM Mg added) provided by the kit was added to each well and incubated at 25° C. for 40 minutes. Then, 20 μL of Kinase Detection Reagent was added and incubated at 25° C. for 40 minutes. Luciferase activity of each well was measured via luminescence on an Envision plate reader (PerkinElmer).
Data were normalized based on maximum inhibition (50 μM of kinase inhibitor CU3) and no inhibition (DMSO) controls. Least squares curve fittings were performed using a four-parameter variable slope nonlinear regression model. IC50 was defined as the concentration of compound required to inhibit 50% of maximum activity. IC50 values from multiple experiments were averaged by geometric mean and the standard deviation was calculated.

[1] = test system: Jurkat NFκB-luciferase cells; experiment: Jurkat NFκB-Luciferase Assay; assay type: cell-based; conditions: Homo sapiens; Jurkat NFκB-luciferase cells activated with anti-CD3 antibody (OKT3), 2.5 hrs at 37° C.; geometric mean; read-out: DGK NFKb Luciferase EC50
Experimental: The activity of compounds was tested in a cell based NFκB reporter assay. Jurkat cells that are stably expressing a luciferase reporter construct under the transcriptional control of a NFκB reporter element were activated with an anti-CD3 antibody and luciferase levels were measured with a bioluminescence readout. An increase in the levels of bioluminescence was indicative of enhanced T-cell activation following DGKα inhibition by the compound.
Flat-bottom polystyrene plates (384-well, tissue culture treated) were coated overnight at 4° C. with 20 ul/well of a solution of phosphate-buffered saline supplemented with 5 ug/ml anti-CD3 antibody (clone OKT3, Biolegend). The day after, the excess antibody was washed out five times with 100 ul/well of assay medium (RPMI supplemented with 10% fetal bovine serum) using a Biotek EL406 instrument and leaving 20 ul of residual volume in each well. Jurkat NFκB-luciferase cells (Promega #) were harvested and diluted to 1 million cells/ml in assay medium. Sixty nanoliters of test compound dissolved in DMSO at various concentrations were dispensed into 384-well v-bottom polypropylene plates (Greiner) using a Labcyte Echo instrument. Thirty microliters of medium containing the Jurkat NFκB-luciferase cells were then dispensed using a Biotek MicroFlo instrument in each well of the compound-containing plate. The medium/cell/compound mixture was mixed with a Bravo instrument and 20 ul/well of the mixture was transferred to the anti-CD3-coated plate. The assay mixture was then incubated for 2.5 hrs at 37° C. followed by equilibration at 25° C. for 30 min. Forty microliters of One-Glo Ex (Promega) was then added to the assay mixture and luciferase activity was read on a Envision plate reader 7 minutes later.
Bioluminescence data were normalized based on maximum enhancement (1 micromolar of compound) and on basal activation (DMSO) controls. Least squares curve fittings were performed using a four-parameter variable slope nonlinear regression model. EC50 is defined as the concentration of compound required to produce 50% of maximum NFκB luciferase signal. EC50 values from multiple experiments were averaged by geometric mean and the standard deviation was calculated.

human DGKα, sequence (P23743 whole entry): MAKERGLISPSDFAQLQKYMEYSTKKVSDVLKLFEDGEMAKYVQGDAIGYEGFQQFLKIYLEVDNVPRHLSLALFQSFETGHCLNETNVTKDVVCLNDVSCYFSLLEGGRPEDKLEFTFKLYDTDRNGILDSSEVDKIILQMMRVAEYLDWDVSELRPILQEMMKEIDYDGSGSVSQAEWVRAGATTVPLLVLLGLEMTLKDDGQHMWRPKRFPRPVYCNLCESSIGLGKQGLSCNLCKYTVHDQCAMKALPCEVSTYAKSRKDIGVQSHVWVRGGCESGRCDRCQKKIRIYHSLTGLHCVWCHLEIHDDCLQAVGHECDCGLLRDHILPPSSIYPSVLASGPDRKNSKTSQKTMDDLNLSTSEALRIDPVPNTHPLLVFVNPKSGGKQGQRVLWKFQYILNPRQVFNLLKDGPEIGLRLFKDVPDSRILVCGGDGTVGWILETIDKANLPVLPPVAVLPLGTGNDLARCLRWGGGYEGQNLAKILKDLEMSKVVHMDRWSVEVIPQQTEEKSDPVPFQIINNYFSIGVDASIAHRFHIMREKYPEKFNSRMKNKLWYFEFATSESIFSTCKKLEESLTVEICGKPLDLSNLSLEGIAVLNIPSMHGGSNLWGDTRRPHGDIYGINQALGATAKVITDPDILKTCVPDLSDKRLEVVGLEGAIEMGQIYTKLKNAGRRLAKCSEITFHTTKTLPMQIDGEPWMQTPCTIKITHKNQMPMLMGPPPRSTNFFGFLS

SMILES	IC50 (human DGKα) [nM]	EC50 [1] [nM]
CN(c1cccc(C#CC(C)(C)O)c1)c1nc2nccn2c2cc(Cl)ccc12 [Example 1, 4-(3-((8-chloroimidazo[1,2-a]quinazolin-5-yl)(methyl)amino)phenyl)-2-methylbut-3-yn-2-ol]	165	14
CN(c1cc(F)cc(C#CC2(C(F)(F)F)CC2)c1)c1nc2cncn2c2cc(Cl)ccc12 [Example 2, 8-chloro-N-[3-fluoro-5-[2-[1-(trifluoromethyl)cyclopropyl]ethynyl]phenyl]-N-methyl-imidazo[1,5-a]quinazolin-5-amine]	2310	5.11
CN(c1cc(F)cc(C#CC(C)(C)O)c1)c1nc2cncn2c2cc(Cl)ccc12 [Example 3, 4-[3-[(8-chloroimidazo[1,5-a]quinazolin-5-yl)-methyl-amino]-5-fluoro-phenyl]-2-methyl-but-3-yn-2-ol]	839	14.6
CN(c1cc(F)cc(-c2cnc(C3CC3)cn2)c1)c1nc2nnnn2c2cc(Cl)ccc12 [Example 4, 8-chloro-N-(3-(5-cyclopropylpyrazin-2-yl)-5-fluorophenyl)-N-methyltetrazolo[1,5-a]quinazolin-5-amine]	27.6	0.669
CN(c1cccc(-c2ccc(N3CCCS3(=O)=O)cc2)c1)c1nc2nnnn2c2cc(Cl)ccc12 [Example 5, 2-(3′-((8-chlorotetrazolo[1,5-a]quinazolin-5-yl)(methyl)amino)-[1,1′-biphenyl]-4-yl)isothiazolidine 1,1-dioxide]	28.4	4.2
CN(c1cc(F)cc(-c2cnc(C3CC3)cn2)c1)c1nc2nnnn2c2ccc(F)cc12 [Example 6, N-(3-(5-cyclopropylpyrazin-2-yl)-5-fluorophenyl)-7-fluoro-N-methyltetrazolo[1,5-a]quinazolin-5-amine]	15.7	1.31
CCN(c1cc(F)cc(-c2ccc(N3CC4(CC4)CS3(=O)=O)nc2)c1)c1nc2nnnn2c2cc(Cl)ccc12 [Example 7]	117	7.41
CN(c1cc(F)cc(-c2ccc(N3CC4(CC4)CS3(=O)=O)nc2)c1)c1nc2nnnn2c2ccc(F)cc12 [Example 8]	31.1	4.66
CN(c1cccc(-c2cnc(C3CC3)cn2)c1)c1nc2nnnn2c2cc(Cl)ccc12 [Example 9, 8-chloro-N-(3-(5-cyclopropylpyrazin-2-yl)phenyl)-N-methyltetrazolo[1,5-a]quinazolin-5-amine]	44.3	1.75
CN(c1cccc(C#CC(C)(C)O)c1)c1nc2nnnn2c2cc(Cl)ccc12 [Example 10, 4-(3-((8-chlorotetrazolo[1,5-a]quinazolin-5-yl)(methyl)amino)phenyl)-2-methylbut-3-yn-2-ol]	93.1	8.66
CN(c1cccc(Br)c1)c1nc2nnnn2c2cc(Cl)ccc12 [Example 11, N-(3-bromophenyl)-8-chloro-N-methyltetrazolo[1,5-a]quinazolin-5-amine]	430	36.4
CN(c1cc(F)cc(C#CC(C)(C)C(F)F)c1)c1nc2nnnn2c2ccc(F)cc12 [Example 12]	107	2.52
CN(c1cc(F)cc(C#CC(C)(C)O)c1)c1nc2nnnn2c2ccc(F)cc12 [Example 13, 4-(3-fluoro-5-((7-fluorotetrazolo[1,5-a]quinazolin-5-yl)(methyl)amino)phenyl)-2-methylbut-3-yn-2-ol]	12.8	7.54
CN(c1cc(F)cc(C#CC2(C(F)F)CC2)c1)c1nc2nnnn2c2ccc(F)cc12 [Example 14]	65.7	1.54
CN(c1cc(F)cc(C#CC(C)(C)C)c1)c1nc2nnnn2c2ccc(F)cc12 [Example 15]	42.9	1.79
CN(c1cc(F)cc(C#CC2(C(F)(F)F)CC2)c1)c1nc2nnnn2c2ccc(F)cc12 [Example 16]	22.4	3.24
Cc1nnc2nc(N(CC(F)F)c3cc(F)cc(C#CC(C)(C)O)c3)c3ncccc3n12 [Example 17, 4-(3-((2,2-difluoroethyl)(1-methylpyrido[2,3-e][1,2,4]triazolo[4,3-a]pyrimidin-5-yl)amino)-5-fluorophenyl)-2-methylbut-3-yn-2-ol]	77.7	44.3
Cc1nnc2nc(N(CC(F)F)c3cc(F)cc(C#CC4(C(F)(F)F)CC4)c3)c3ncccc3n12 [Example 18, N-(2,2-difluoroethyl)-N-(3-fluoro-5-((1-(trifluoromethyl)cyclopropyl)ethynyl)phenyl)-1-methylpyrido[2,3-e][1,2,4]triazolo[4,3-a]pyrimidin-5-amine]	64.4	4.73
CC(C)(O)C#Cc1cc(F)cc(N(CC(F)F)c2nc3nncn3c3cccnc23)c1 [Example 19, 4-(3-((2,2-difluoroethyl)(pyrido[2,3-e][1,2,4]triazolo[4,3-a]pyrimidin-5-yl)amino)-5-fluorophenyl)-2-methylbut-3-yn-2-ol]	67.6	47.7
Cc1nnc2nc(N3CCCc4c(C#CC5(C(F)(F)F)CC5)cccc43)c3c(F)cncc3n12 [Example 41, 6-fluoro-1-methyl-5-(5-((1-(trifluoromethyl)cyclopropyl)ethynyl)-3,4-dihydroquinolin-1(2H)-yl)pyrido[4,3-e][1,2,4]triazolo[4,3-a]pyrimidine]		2.4
CN(c1cccc(C#CC(C)(C)C)c1)c1nc2nncn2c2cnccc12 [Example 60]		6.75
Cc1nnc2nc(N3CCCCc4c(C#CC(C)(C)C#N)cccc43)c3c(F)cncc3n12 [Example 64, 4-(1-(6-fluoro-1-methylpyrido[4,3-e][1,2,4]triazolo[4,3-a]pyrimidin-5-yl)-2,3,4,5-tetrahydro-1H-benzo[b]azepin-6-yl)-2,2-dimethylbut-3-ynenitrile]		5.98
CN(C)c1ccc2c(N(C)c3cccc(C#CC(C)(C)C)c3)nc3nncn3c2n1 [Example 110, N^5-(3-(3,3-dimethylbut-1-yn-1-yl)phenyl)-N^2,N^2,N^5-trimethylpyrido[3,2-e][1,2,4]triazolo[4,3-a]pyrimidine-2,5-diamine]		9.9
COc1ccc(-c2cccc(N(C)c3nc4nncn4c4nc(N(C)C)ccc34)c2)cn1 [Example 111, N^5-(3-(6-methoxypyridin-3-yl)phenyl)-N^2,N^2,N^5-trimethylpyrido[3,2-e][1,2,4]triazolo[4,3-a]pyrimidine-2,5-diamine]		20.1
CN(C)c1ccc2c(N(C)c3cccc(-c4ccc(C5CC5)cc4)c3)nc3nncn3c2n1 [Example 112, N^5-(4′-cyclopropyl-[1,1′-biphenyl]-3-yl)-N^2,N^2,N^5-trimethylpyrido[3,2-e][1,2,4]triazolo[4,3-a]pyrimidine-2,5-diamine]		0.982
CCOc1ccc2c(N(C)c3cccc(-c4ccc(C5CC5)cc4)c3)nc3nncn3c2n1 [Example 113, N-(4′-cyclopropyl-[1,1′-biphenyl]-3-yl)-2-ethoxy-N-methylpyrido[3,2-e][1,2,4]triazolo[4,3-a]pyrimidin-5-amine]		67.2
